# Values of other authors in patent US20220273701A1, “TREATMENT FOR REDUCING ADVERSE EVENTS INCLUDING CHEMOTHERAPY DISCOMFORT AND OTHER CONDITIONS” (priority 2019, published 2022).
row,Molecule,pKa of Acid (or pH of 1:1 mixture)
1,"C[C@H](N)C(=O)O [Alanine/Alanine anion, Alanine]",9.69
2,"N[C@@H](CS)C(=O)O [Cysteine/Cysteine anion, Cysteine]",10.78
3,"NCC(=O)O [Glycine/Glycine anion, Glycine]",9.60
4,Arginine anion [Arginine anion/Arginine dianion],12.48
5,Boric Acid [Boric Acid/Borate],9.0
6,Lysine anion [Lysine anion/Lysine dianion],10.79
7,Tris(hydroxymethyl)aminomethane,8.2
8,Tyrosine anion [Tyrosine anion/Tyrosine dianion],10.07

# Continued, values first:
row,pKa of Acid (or pH of 1:1 mixture),Molecule
1,9.60,"CC[C@H](C)[C@H](N)C(=O)O [Isoleucine/Isoleucine anion, Isoleucine]"
2,9.3,O=S(=O)(O)CCNC1CCCCC1 [N-Cyclohexyl-2-aminoethanesulfonic acid]
3,10.4,O=S(=O)(O)CCCNC1CCCCC1 [N-cyclohexyl-3-aminopropanesulfonic acid]
4,10.60,"O=C(O)[C@@H]1CCCN1 [Proline/Proline anion, Proline]"
5,9.62,"CC(C)[C@H](N)C(=O)O [Valine/Valine anion, Valine]"
6,8.55,O=S(=O)(O)CCCNC(CO)(CO)CO [tris(hydroxymethyl)methylamino]propanesulfonic acid]
